According to ChEMBL document CHEMBL1201862, “PubChem BioAssay data set” (2004):
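These data come from cells grown in 96-well plates and exposed to compound for 48 hours at five concentrations. GI50: concentration for 50% inhibition of growth.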 Activity calls are given as the source filed them. Cut-off read from the data, not from the text of the source: active = GI50 up to about 1.1 µM and inactive = higher.

Tests used:
Experiment in all cases: inhibition of tumour cell growth, NCI panel, 48 h
HL-60 = tested on: HL-60
UACC-62 = tested on: UACC-62
OVCAR-5 = tested on: OVCAR-5
K562 = tested on: K562
MDA-N = tested on: MDA-N
NCI/ADR-RES = tested on: NCI/ADR-RES
HOP-92 = tested on: HOP-92
HT-29 = tested on: HT-29
COLO 205 = tested on: COLO 205
A549 = tested on: A549
SK-MEL-5 = tested on: SK-MEL-5
NCI-H23 = tested on: NCI-H23
ACHN = tested on: ACHN
SK-MEL-28 = tested on: SK-MEL-28
MCF7 = tested on: MCF7
SN12C = tested on: SN12C
UACC-257 = tested on: UACC-257
SNB-19 = tested on: SNB-19
NCI-H226 = tested on: NCI-H226
OVCAR-4 = tested on: OVCAR-4

SMILES	GI50 (HL-60)	GI50 (UACC-62)	GI50 (OVCAR-5)	GI50 (K562)	GI50 (MDA-N)	GI50 (NCI/ADR-RES)	GI50 (HOP-92)	GI50 (HT-29)	GI50 (COLO 205)	GI50 (A549)	GI50 (SK-MEL-5)	GI50 (NCI-H23)	GI50 (ACHN)	GI50 (SK-MEL-28)	GI50 (MCF7)	GI50 (SN12C)	GI50 (UACC-257)	GI50 (SNB-19)	GI50 (NCI-H226)	GI50 (OVCAR-4)
O=C1C[C@H](Sc2ccccc2)C2(OCCO2)[C@H]2ON3CCC[C@@H]3[C@@H]12	1.06 µM (active)	1.73 µM (inactive)	3.01 µM (inactive)	1.71 µM (inactive)	3.05 µM (inactive)	4.61 µM (inactive)	1.24 µM (inactive)	0.759 µM (active)	1.66 µM (inactive)	2.89 µM (inactive)	7.23 µM (inactive)	1.91 µM (inactive)	2.1 µM (inactive)	2.49 µM (inactive)	1.12 µM (inactive)	1.69 µM (inactive)	2.72 µM (inactive)	5.18 µM (inactive)	8.22 µM (inactive)	2.57 µM (inactive)
Cc1ccc(/C=C2\CN(C)CC3=C2N=C(S)NC3c2ccc(C)cc2)cc1 (stereo unspecified)	28.2 µM (inactive)	36 µM (inactive)	> 100 µM (inactive)	23.3 µM (inactive)	13.5 µM (inactive)	23.8 µM (inactive)	18.2 µM (inactive)	30.8 µM (inactive)	19 µM (inactive)	37.2 µM (inactive)	25.7 µM (inactive)	39 µM (inactive)	40.7 µM (inactive)	> 100 µM (inactive)	24.7 µM (inactive)	32.7 µM (inactive)	7 µM (inactive)	73.5 µM (inactive)	27.8 µM (inactive)	14 µM (inactive)
O=S1(=O)CS(=O)(=O)OCCCO1	59 µM (inactive)	> 100 µM (inactive)	> 100 µM (inactive)	> 100 µM (inactive)	> 100 µM (inactive)	> 100 µM (inactive)	> 100 µM (inactive)	> 100 µM (inactive)	> 100 µM (inactive)	> 100 µM (inactive)	> 100 µM (inactive)	68.5 µM (inactive)	52.1 µM (inactive)	> 100 µM (inactive)	97.1 µM (inactive)	> 100 µM (inactive)	> 100 µM (inactive)	> 100 µM (inactive)	> 100 µM (inactive)	> 100 µM (inactive)
CCOC1CCC2C(CCC(/C=C/c3ccc(O)c4ncccc34)N2C)C1 (stereo unspecified)	3.84 µM (inactive)	8.89 µM (inactive)	33.2 µM (inactive)	4.6 µM (inactive)	38.5 µM (inactive)	> 100 µM (inactive)	11.7 µM (inactive)	7.03 µM (inactive)	3.56 µM (inactive)	25.1 µM (inactive)	19.7 µM (inactive)	10.3 µM (inactive)	32.7 µM (inactive)	29.6 µM (inactive)	4.23 µM (inactive)	4.78 µM (inactive)	–	16 µM (inactive)	37.4 µM (inactive)	–
COP(=O)(OC)C(N)CCSC (stereo unspecified)	> 100 µM (inactive)	> 100 µM (inactive)	> 100 µM (inactive)	> 100 µM (inactive)	> 100 µM (inactive)	> 100 µM (inactive)	> 100 µM (inactive)	> 100 µM (inactive)	> 100 µM (inactive)	> 100 µM (inactive)	> 100 µM (inactive)	> 100 µM (inactive)	> 100 µM (inactive)	> 100 µM (inactive)	> 100 µM (inactive)	> 100 µM (inactive)	> 100 µM (inactive)	> 100 µM (inactive)	> 100 µM (inactive)	> 100 µM (inactive)
O=c1ccc2ccc(S)cc2o1	> 100 µM (inactive)	> 100 µM (inactive)	> 100 µM (inactive)	–	> 100 µM (inactive)	> 100 µM (inactive)	> 100 µM (inactive)	> 100 µM (inactive)	> 100 µM (inactive)	> 100 µM (inactive)	> 100 µM (inactive)	> 100 µM (inactive)	> 100 µM (inactive)	> 100 µM (inactive)	> 100 µM (inactive)	> 100 µM (inactive)	> 100 µM (inactive)	> 100 µM (inactive)	> 100 µM (inactive)	> 100 µM (inactive)
CC(C)(C)c1cc(C(=O)/C=C/c2ccc(O)c(O)c2O)cc(C(C)(C)C)c1O	1.77 µM (inactive)	4.54 µM (inactive)	17.5 µM (inactive)	2.81 µM (inactive)	4.38 µM (inactive)	1.69 µM (inactive)	5.68 µM (inactive)	11.7 µM (inactive)	11.8 µM (inactive)	5.06 µM (inactive)	5.6 µM (inactive)	4.03 µM (inactive)	5.69 µM (inactive)	5.01 µM (inactive)	4.6 µM (inactive)	2.8 µM (inactive)	3.05 µM (inactive)	2.56 µM (inactive)	14.1 µM (inactive)	2.77 µM (inactive)
CCCn1c(CN(Cc2nc3ccccc3n2CCC)Cc2nc3ccccc3n2CCC)nc2ccccc21	0.764 µM (active)	3.7 µM (inactive)	6.07 µM (inactive)	1.23 µM (inactive)	2.26 µM (inactive)	8.69 µM (inactive)	3.03 µM (inactive)	2.25 µM (inactive)	2.81 µM (inactive)	2.59 µM (inactive)	2.55 µM (inactive)	5.11 µM (inactive)	2.11 µM (inactive)	10.7 µM (inactive)	0.973 µM (active)	2.01 µM (inactive)	7.36 µM (inactive)	7.01 µM (inactive)	6.47 µM (inactive)	3.73 µM (inactive)
Cc1c(C#N)c2nnn(C)c(=O)n2c1-c1ccccc1	30.8 µM (inactive)	> 100 µM (inactive)	> 100 µM (inactive)	–	> 100 µM (inactive)	17.5 µM (inactive)	> 100 µM (inactive)	–	–	86.3 µM (inactive)	–	59.3 µM (inactive)	> 100 µM (inactive)	> 100 µM (inactive)	71 µM (inactive)	> 100 µM (inactive)	34.4 µM (inactive)	> 100 µM (inactive)	62.1 µM (inactive)	> 100 µM (inactive)
CC(=O)Nc1cc2c(cc1O)CC[C@@H]1[C@@H]2CC[C@]2(C)[C@@H](O)CC[C@@H]12	29.6 µM (inactive)	–	86.9 µM (inactive)	23.5 µM (inactive)	18.1 µM (inactive)	19.9 µM (inactive)	41 µM (inactive)	30.4 µM (inactive)	30 µM (inactive)	36.6 µM (inactive)	22.4 µM (inactive)	47.3 µM (inactive)	41.6 µM (inactive)	63.4 µM (inactive)	28.6 µM (inactive)	–	43.4 µM (inactive)	> 100 µM (inactive)	30.8 µM (inactive)	> 100 µM (inactive)
